We go through 22 compounds from article PMC11207571, “Applicability of MDR1 Overexpressing Abcb1KO-MDCKII Cell Lines for Investigating In Vitro Species Differences and Brain Penetration Prediction” (Pharmaceutics, 2024).

The nature of data set [1]: Bidirectional transport assay, efflux ratio in Abcb1KO-MDCKII-Mock control cells. Particulars: dog, MDCK, pH 7.4. As to the method: (§1) Eluent A consisted of 0.1% formic acid in water, eluent B consisted of 0.1% formic acid in acetonitrile. Then, 10 µL samples were injected into the HPLC-MS/MS system. Mass spectrometric detection was performed in SRM mode, and ion transitions for each analyte were optimized during method development. Samples were analyzed in pools, with each pool containing three to four analytes.

In a further data set the target is human MDR1 (Homo sapiens, UniProt P08183). Briefly: Bidirectional transport assay, efflux ratio in Abcb1KO-MDCKII hMDR1 cells. The settings on record: human, MDCK-MDR1, pH 7.4. As to the method:
as §1

In another data set the target is rat Mdr1a (Rattus norvegicus, UniProt Q6PSM0). Briefly: Bidirectional transport assay, efflux ratio in Abcb1KO-MDCKII rMDR1 cells. Particulars: rat, pH 7.4. The procedure: as §1
Chain of rat Mdr1a (Q6PSM0 1-1272): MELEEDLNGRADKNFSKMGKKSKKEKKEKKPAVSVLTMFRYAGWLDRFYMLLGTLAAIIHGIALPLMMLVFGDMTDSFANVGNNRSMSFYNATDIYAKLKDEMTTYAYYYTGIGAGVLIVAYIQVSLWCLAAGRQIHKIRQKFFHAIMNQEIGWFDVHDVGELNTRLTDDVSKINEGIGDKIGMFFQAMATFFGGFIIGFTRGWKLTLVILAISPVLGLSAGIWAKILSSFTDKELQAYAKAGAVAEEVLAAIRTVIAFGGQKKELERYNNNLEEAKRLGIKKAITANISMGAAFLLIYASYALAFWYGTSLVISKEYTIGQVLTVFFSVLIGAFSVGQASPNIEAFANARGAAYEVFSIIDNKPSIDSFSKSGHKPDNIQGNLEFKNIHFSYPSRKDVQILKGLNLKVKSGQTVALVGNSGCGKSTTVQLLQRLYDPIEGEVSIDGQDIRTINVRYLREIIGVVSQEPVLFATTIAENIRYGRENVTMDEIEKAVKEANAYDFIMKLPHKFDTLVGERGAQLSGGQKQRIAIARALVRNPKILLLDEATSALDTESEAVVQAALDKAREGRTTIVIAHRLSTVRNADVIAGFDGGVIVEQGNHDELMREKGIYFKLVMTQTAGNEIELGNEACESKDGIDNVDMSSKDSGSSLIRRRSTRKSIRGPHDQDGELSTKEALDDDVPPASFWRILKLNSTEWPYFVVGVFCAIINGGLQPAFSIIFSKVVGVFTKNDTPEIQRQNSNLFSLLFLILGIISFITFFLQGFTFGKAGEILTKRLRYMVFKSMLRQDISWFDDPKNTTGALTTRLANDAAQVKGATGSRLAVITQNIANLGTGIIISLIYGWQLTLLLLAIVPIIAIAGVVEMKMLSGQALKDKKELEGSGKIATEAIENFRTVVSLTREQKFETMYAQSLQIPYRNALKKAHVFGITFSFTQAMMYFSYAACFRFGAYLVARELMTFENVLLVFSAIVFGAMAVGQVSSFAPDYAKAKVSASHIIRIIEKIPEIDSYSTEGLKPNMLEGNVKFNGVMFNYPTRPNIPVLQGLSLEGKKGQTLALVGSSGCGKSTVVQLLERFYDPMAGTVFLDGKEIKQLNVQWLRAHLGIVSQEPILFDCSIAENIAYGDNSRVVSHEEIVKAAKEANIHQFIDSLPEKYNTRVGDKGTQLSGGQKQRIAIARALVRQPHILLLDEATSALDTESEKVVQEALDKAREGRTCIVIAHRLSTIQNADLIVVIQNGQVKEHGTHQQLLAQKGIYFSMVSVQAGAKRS
Another data set has as its target mouse Mdr1a (Mus musculus, UniProt P21447). Briefly: Bidirectional transport assay, efflux ratio in Abcb1KO-MDCKII mMDR1 cells. The settings on record: mouse, pH 7.4. The procedure: as §1
The target in another data set is cynomolgus monkey Mdr1 (Macaca fascicularis, UniProt Q8HZQ6). As to the kind of experiment: Bidirectional transport assay, efflux ratio in Abcb1KO-MDCKII cyMDR1 cells. Particulars: cynomolgus monkey, pH 7.4. As to the method:
as §1

Another data set concerns the target T1, human BCRP (Homo sapiens, UniProt Q9UNQ0).
T1 sequence (Q9UNQ0 1-655): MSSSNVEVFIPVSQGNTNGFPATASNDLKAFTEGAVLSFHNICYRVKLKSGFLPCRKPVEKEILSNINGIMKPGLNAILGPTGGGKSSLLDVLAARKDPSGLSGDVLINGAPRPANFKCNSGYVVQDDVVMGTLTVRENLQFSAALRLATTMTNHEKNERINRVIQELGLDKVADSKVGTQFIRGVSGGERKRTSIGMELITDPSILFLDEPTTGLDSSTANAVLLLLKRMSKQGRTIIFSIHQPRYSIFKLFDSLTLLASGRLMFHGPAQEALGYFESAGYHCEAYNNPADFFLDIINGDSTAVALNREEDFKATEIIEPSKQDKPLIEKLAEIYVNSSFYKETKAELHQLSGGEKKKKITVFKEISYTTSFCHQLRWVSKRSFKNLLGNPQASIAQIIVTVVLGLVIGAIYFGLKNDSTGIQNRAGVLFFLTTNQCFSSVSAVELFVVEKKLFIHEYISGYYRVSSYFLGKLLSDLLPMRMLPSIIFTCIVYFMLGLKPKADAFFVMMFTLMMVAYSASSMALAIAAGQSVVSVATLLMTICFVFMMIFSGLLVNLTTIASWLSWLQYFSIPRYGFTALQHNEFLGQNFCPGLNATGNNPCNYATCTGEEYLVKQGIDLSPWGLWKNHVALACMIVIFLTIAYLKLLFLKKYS
As to the kind of experiment: Bidirectional transport assay, efflux ratio in MDCKII-BCRP cells. Particulars: for efflux ratio at 120 min, 1 µM: human, pH 7.4. The procedure:
as §1

Chain of cynomolgus monkey Mdr1 (Q8HZQ6 1-1283): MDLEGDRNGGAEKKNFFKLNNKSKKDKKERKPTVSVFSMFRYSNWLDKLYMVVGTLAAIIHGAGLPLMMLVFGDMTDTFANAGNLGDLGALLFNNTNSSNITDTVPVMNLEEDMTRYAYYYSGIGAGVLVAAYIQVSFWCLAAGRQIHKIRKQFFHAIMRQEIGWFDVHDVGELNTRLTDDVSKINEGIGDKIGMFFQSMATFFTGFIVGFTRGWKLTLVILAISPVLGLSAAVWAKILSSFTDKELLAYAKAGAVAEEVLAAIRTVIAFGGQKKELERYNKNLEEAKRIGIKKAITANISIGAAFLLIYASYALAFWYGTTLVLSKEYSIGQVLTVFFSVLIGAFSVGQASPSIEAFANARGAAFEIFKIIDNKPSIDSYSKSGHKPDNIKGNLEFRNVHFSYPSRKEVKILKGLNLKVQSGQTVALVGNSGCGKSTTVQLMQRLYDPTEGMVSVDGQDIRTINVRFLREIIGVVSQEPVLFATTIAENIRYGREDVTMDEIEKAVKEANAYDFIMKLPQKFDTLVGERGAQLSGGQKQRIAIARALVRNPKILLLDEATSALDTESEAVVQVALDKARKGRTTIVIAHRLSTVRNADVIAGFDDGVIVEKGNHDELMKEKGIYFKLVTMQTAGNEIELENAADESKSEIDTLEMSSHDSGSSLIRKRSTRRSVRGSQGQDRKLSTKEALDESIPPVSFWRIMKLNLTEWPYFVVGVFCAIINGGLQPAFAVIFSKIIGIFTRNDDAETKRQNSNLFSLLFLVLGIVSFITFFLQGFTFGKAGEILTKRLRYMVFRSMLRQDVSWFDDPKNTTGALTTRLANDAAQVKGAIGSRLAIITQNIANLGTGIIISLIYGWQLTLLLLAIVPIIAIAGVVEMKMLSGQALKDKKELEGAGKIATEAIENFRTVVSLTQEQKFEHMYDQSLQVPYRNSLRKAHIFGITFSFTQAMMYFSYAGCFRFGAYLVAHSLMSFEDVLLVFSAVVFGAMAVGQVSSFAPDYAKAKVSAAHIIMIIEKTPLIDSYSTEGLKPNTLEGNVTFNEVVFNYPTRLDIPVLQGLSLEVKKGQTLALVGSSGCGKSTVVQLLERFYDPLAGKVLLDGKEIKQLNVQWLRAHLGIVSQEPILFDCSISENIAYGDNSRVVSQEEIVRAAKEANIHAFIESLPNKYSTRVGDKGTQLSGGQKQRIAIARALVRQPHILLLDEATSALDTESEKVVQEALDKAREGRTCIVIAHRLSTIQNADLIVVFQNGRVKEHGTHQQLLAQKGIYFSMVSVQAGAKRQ
Chain of mouse Mdr1a (P21447 whole entry): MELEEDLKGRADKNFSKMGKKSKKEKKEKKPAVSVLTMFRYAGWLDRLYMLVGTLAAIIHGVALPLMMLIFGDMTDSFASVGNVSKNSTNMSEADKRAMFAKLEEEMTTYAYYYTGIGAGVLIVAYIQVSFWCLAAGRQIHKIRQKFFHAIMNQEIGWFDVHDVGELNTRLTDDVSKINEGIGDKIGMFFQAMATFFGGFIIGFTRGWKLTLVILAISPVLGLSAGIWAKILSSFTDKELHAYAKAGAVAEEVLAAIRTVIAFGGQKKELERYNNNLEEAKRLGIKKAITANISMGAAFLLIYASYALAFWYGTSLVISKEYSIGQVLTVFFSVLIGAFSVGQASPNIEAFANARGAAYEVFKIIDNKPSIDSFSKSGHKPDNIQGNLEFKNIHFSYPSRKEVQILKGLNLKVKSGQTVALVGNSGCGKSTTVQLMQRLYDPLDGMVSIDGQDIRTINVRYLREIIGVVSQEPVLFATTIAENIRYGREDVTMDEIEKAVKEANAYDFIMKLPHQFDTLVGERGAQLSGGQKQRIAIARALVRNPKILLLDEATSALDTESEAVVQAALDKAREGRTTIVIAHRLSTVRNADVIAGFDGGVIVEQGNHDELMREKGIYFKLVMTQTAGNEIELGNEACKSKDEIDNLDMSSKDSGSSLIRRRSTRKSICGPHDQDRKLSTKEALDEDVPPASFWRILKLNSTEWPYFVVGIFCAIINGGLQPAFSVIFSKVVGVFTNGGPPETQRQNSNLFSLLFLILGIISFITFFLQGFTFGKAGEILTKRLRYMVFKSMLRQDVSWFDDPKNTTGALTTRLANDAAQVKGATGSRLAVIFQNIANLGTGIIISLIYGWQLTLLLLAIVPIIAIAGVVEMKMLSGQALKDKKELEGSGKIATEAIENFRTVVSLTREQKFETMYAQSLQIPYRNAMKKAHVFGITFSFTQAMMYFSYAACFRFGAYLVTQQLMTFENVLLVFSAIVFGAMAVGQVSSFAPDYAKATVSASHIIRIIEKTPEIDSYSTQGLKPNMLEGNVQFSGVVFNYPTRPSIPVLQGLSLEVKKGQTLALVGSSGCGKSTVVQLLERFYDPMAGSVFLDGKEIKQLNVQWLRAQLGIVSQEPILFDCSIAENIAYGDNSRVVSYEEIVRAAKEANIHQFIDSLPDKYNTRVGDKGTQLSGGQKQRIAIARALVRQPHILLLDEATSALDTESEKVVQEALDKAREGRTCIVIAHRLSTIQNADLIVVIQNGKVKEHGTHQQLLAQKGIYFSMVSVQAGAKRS
Chain of human MDR1 (P08183 whole entry): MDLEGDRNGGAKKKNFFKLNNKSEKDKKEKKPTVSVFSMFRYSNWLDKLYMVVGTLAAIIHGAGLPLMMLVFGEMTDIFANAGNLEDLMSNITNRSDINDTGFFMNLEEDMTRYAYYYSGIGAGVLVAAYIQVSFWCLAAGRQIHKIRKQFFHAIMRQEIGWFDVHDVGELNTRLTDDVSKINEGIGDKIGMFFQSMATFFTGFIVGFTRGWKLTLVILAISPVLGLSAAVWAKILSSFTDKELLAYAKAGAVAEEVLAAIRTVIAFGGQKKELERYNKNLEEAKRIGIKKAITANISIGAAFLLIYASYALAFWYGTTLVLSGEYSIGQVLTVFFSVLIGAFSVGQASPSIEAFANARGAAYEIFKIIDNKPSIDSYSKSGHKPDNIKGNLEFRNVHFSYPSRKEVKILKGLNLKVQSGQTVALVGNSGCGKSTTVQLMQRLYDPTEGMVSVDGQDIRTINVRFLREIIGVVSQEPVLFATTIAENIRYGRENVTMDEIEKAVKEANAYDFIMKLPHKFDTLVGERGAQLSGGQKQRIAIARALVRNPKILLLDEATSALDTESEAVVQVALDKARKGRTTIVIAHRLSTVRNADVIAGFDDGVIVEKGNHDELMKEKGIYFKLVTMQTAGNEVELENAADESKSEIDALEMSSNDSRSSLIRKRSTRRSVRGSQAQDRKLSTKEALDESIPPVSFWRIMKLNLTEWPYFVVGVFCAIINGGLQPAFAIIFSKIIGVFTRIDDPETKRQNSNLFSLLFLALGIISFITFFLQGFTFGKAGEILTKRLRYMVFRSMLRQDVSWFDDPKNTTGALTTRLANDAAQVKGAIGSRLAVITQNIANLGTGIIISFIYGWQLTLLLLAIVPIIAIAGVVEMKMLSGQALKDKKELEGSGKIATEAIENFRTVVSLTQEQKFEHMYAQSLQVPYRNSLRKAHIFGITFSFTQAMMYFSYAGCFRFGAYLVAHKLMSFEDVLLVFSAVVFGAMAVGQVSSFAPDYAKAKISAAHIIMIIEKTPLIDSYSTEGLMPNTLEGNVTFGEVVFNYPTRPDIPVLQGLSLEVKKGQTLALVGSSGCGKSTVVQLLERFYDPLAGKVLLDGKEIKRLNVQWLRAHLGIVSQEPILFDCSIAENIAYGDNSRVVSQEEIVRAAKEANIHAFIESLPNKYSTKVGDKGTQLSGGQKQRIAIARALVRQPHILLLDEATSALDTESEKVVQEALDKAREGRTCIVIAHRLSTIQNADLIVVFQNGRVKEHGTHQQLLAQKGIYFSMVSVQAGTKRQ

Broadly, the efflux ratio is a quotient of directional permeabilities that is used to spot active efflux. For the compound `N=C(N)NC(=O)Cc1c(Cl)cccc1Cl` [Guanfacine], the efflux ratio at 120 min, 1 µM was 0.63 ± 0.06 in data set [1]; 2.04 ± 0.21 at human MDR1; 0.97 ± 0.12 on rat Mdr1a; 1.62 ± 0.16 on mouse Mdr1a; 0.65 ± 0.11 on cynomolgus monkey Mdr1; 0.32 ± 0.08 at human BCRP.
Turning to `O=C(CCCN1CCC(O)(c2ccc(Cl)cc2)CC1)c1ccc(F)cc1` [Haloperidol], the efflux ratio at 120 min, 1 µM in data set [1] stood at 0.74 ± 0.1; at human MDR1, 0.89 ± 0.22; at rat Mdr1a, 0.85 ± 0.15; on mouse Mdr1a, 0.72 ± 0.11; at cynomolgus monkey Mdr1, 0.8 ± 0.22; on human BCRP, 0.72 ± 0.1.
For `Cc1ccc(NC(=O)c2ccc(CN3CCN(C)CC3)cc2)cc1Nc1nccc(-c2cccnc2)n1` [Imatinib], the efflux ratio at 120 min, 1 µM in data set [1] was 0.99 ± 0.11; at human MDR1, 60.2 ± 4.74; on rat Mdr1a, 29.1 ± 1.26; on mouse Mdr1a, 23.1 ± 1.52; on cynomolgus monkey Mdr1, 10.5 ± 0.6; at human BCRP, 49.2 ± 0.99.
Regarding `CN(C)CCCN1c2ccccc2CCc2ccccc21` [Imipramine], the efflux ratio at 120 min, 1 µM in data set [1] turned out to be 0.62 ± 0.04; at human MDR1 it was 1.08 ± 0.05; on rat Mdr1a it was 0.83 ± 0.08; on mouse Mdr1a it was 0.9 ± 0.05; at cynomolgus monkey Mdr1 it was 0.82 ± 0.09; on human BCRP, 0.6 ± 0.06.
Take `CC(C)(C)NC(=O)[C@@H]1CN(Cc2cccnc2)CCN1C[C@@H](O)C[C@@H](Cc1ccccc1)C(=O)N[C@H]1c2ccccc2C[C@H]1O` [Indinavir]: the efflux ratio at 120 min, 1 µM in data set [1] was found to be 0.93 ± 0.31; on human MDR1, 33.2 ± 1.69; at rat Mdr1a it was 10.9 ± 1.21; at mouse Mdr1a it was 11.2 ± 2.53; at cynomolgus monkey Mdr1, 34.8 ± 10.4; at human BCRP, 29.7 ± 3.69.
For `CCN(CC)CCNC(=O)c1cc(Cl)c(N)cc1OC` [Metoclopramide], the efflux ratio at 120 min, 1 µM came to 0.85 ± 0.07 in data set [1]; 5.55 ± 0.43 at human MDR1; 3.02 ± 0.28 on rat Mdr1a; 2.55 ± 0.21 at mouse Mdr1a; 1.44 ± 0.14 at cynomolgus monkey Mdr1; 2.42 ± 0.33 on human BCRP.
Consider `COCCc1ccc(OCC(O)CNC(C)C)cc1` (stereo not drawn) [Metoprolol], for which the efflux ratio at 120 min, 1 µM in data set [1] was 0.74 ± 0.05; on human MDR1, 1.53 ± 0.15; on rat Mdr1a, 0.97 ± 0.11; on mouse Mdr1a, 0.92 ± 0.08; on cynomolgus monkey Mdr1, 0.74 ± 0.05; on human BCRP, 0.71 ± 0.11.
Regarding `Cc1cccc(C)c1OCC(C)N` (stereo not drawn) [Mexiletine], the efflux ratio at 120 min, 1 µM in data set [1] was 0.36 ± 0.05; on human MDR1, 0.44 ± 0.03; at rat Mdr1a, 0.42 ± 0.08; on mouse Mdr1a, 0.64 ± 0.16; on cynomolgus monkey Mdr1, 0.51 ± 0.15; on human BCRP, 0.71 ± 0.05.
For the compound `Cc1ncc2n1-c1ccc(Cl)cc1C(c1ccccc1F)=NC2` [Midazolam], the efflux ratio at 120 min, 1 µM in data set [1] is 0.43 ± 0.04; on human MDR1, 0.53 ± 0.03; on rat Mdr1a it was 0.28 ± 0.06; at mouse Mdr1a it was 0.4 ± 0.06; at cynomolgus monkey Mdr1, 0.43 ± 0.05; on human BCRP it was 0.57 ± 0.06.
On to `O=C1c2c(O)ccc(O)c2C(=O)c2c(NCCNCCO)ccc(NCCNCCO)c21` [Mitoxantrone], for which the efflux ratio at 120 min, 1 µM stood at 1.15 ± 0.14 in data set [1]; 5.66 ± 0.54 at human MDR1; 17.6 ± 1.56 at rat Mdr1a; 28.6 ± 4.05 on mouse Mdr1a; 40.3 ± 2.47 on cynomolgus monkey Mdr1; 55.6 ± 10.8 on human BCRP.
Take `CC(=O)O[C@H]1C(=O)[C@@]2(C)[C@H]([C@H](OC(=O)c3ccccc3)[C@]3(O)C[C@H](OC(=O)[C@H](O)[C@@H](NC(=O)c4ccccc4)c4ccccc4)C(C)=C1C3(C)C)[C@]1(OC(C)=O)CO[C@@H]1C[C@@H]2O` [Paclitaxel]: the efflux ratio at 120 min, 1 µM in data set [1] was 2.52 ± 0.51; at human MDR1, 40.2 ± 12.6; at rat Mdr1a it was 82.9 ± 41.1; at mouse Mdr1a it was 57.7 ± 17; at cynomolgus monkey Mdr1, 33.4 ± 5.69; at human BCRP, 63.8 ± 28.5.
Regarding `Cc1nc2n(c(=O)c1CCN1CCC(c3noc4cc(F)ccc34)CC1)CCCC2O` (stereo not drawn) [Paliperidone], the efflux ratio at 120 min, 1 µM in data set [1] amounted to 0.79 ± 0.1; at human MDR1, 19.8 ± 2.06; on rat Mdr1a, 6.06 ± 1.45; on mouse Mdr1a it was 8.26 ± 0.88; at cynomolgus monkey Mdr1, 2.47 ± 0.41; at human BCRP, 5.82 ± 1.79.
Regarding `CN(C)CCC(c1ccccc1)c1ccccn1` (stereo not drawn) [Pheniramine], the efflux ratio at 120 min, 1 µM in data set [1] came out at 0.78 ± 0.04; on human MDR1, 1.45 ± 0.05; at rat Mdr1a, 1.09 ± 0.03; at mouse Mdr1a it was 1.1 ± 0.1; at cynomolgus monkey Mdr1 it was 0.99 ± 0.02; on human BCRP, 1.02 ± 0.03.
Take `COc1cc2nc(N3CCN(C(=O)c4ccco4)CC3)nc(N)c2cc1OC` [Prazosin]: the efflux ratio at 120 min, 1 µM in data set [1] turned out to be 0.72 ± 0.03; on human MDR1 it was 9.35 ± 0.45; at rat Mdr1a, 6.5 ± 0.22; at mouse Mdr1a, 5.14 ± 0.39; at cynomolgus monkey Mdr1, 2.42 ± 0.15. Further, on human BCRP (1 µM, 120 min, mean ± SD), the “ER in MDCKII BCRP” value stood at 14.79 ± 1.68.
For the compound `C[C@]12C=CC(=O)C=C1CC[C@@H]1[C@@H]2C(=O)C[C@@]2(C)[C@H]1CC[C@]2(O)C(=O)CO` [Prednisone], the efflux ratio at 120 min, 1 µM in data set [1] worked out at 0.82 ± 0.11; on human MDR1, 17.3 ± 2.38; on rat Mdr1a, 9.6 ± 1.82; at mouse Mdr1a, 6.6 ± 0.57; at cynomolgus monkey Mdr1, 4.41 ± 0.52; at human BCRP, 1.33 ± 0.1.
Consider `CC(C)NCC(O)COc1cccc2ccccc12` (stereo not drawn) [Propranolol], for which the efflux ratio at 120 min, 1 µM was 0.54 ± 0.06 in data set [1]; 0.88 ± 0.08 on human MDR1; 0.73 ± 0.08 on rat Mdr1a; 0.92 ± 0.1 on mouse Mdr1a; 0.66 ± 0.06 on cynomolgus monkey Mdr1; 0.71 ± 0.15 at human BCRP.
`CNC(=C[N+](=O)[O-])NCCSCc1ccc(CN(C)C)o1` [Ranitidine]: the efflux ratio at 120 min, 1 µM came out at 0.91 ± 0.06 in data set [1]; 2.89 ± 0.15 on human MDR1; 2.63 ± 0.19 at rat Mdr1a; 2.09 ± 0.3 at mouse Mdr1a; 2.14 ± 0.25 on cynomolgus monkey Mdr1; 10.3 ± 0.96 at human BCRP.
Regarding `CN[C@H]1CC[C@@H](c2ccc(Cl)c(Cl)c2)c2ccccc21` [Sertraline], the efflux ratio at 120 min, 1 µM is 3.57 ± 0.3 in data set [1]; 3.1 ± 0.34 on human MDR1; 2.74 ± 0.28 at rat Mdr1a; 2.93 ± 0.43 on mouse Mdr1a; 5.65 ± 0.81 at cynomolgus monkey Mdr1; 3.7 ± 0.67 on human BCRP.
Turning to `Nc1c2c(nc3ccccc13)CCCC2` [Tacrine], the efflux ratio at 120 min, 1 µM in data set [1] was determined as 0.81 ± 0.02; at human MDR1, 0.93 ± 0.04; on rat Mdr1a, 0.88 ± 0.02; on mouse Mdr1a, 0.99 ± 0.03; on cynomolgus monkey Mdr1, 0.83 ± 0.02; at human BCRP, 1.19 ± 0.07.
As for `CC/C(=C(\c1ccccc1)c1ccc(OCCN(C)C)cc1)c1ccccc1` [Tamoxifen], the efflux ratio at 120 min, 1 µM in data set [1] amounted to 2.25 ± 1.24; at human MDR1, 1.65 ± 0.24; on rat Mdr1a, 1.61 ± 0.18; on mouse Mdr1a, 2.26 ± 0.76; at cynomolgus monkey Mdr1 it was 1.81 ± 0.51; on human BCRP, 0.81 ± 0.14.
As to `CC(C)(C)c1ccc(C(O)CCCN2CCC(C(O)(c3ccccc3)c3ccccc3)CC2)cc1` (stereo not drawn) [Terfenadine], the efflux ratio at 120 min, 1 µM was 0.88 ± 0.06 in data set [1]; 10.7 ± 0.78 at human MDR1; 1.29 ± 0.14 on rat Mdr1a; 2.64 ± 0.33 on mouse Mdr1a; 0.92 ± 0.14 on cynomolgus monkey Mdr1; 2.96 ± 0.31 at human BCRP.
Take `O=c1n(CCCN2CCN(c3cccc(Cl)c3)CC2)nc2ccccn12` [Trazodone]: the efflux ratio at 120 min, 1 µM in data set [1] amounted to 2.66 ± 0.59; on human MDR1, 1.71 ± 0.34; on rat Mdr1a, 1.4 ± 0.16; on mouse Mdr1a, 0.98 ± 0.24; at cynomolgus monkey Mdr1, 1.5 ± 0.1; at human BCRP, 0.86 ± 0.11.
